# In article PMC8474116, “Discovery of Novel Acetamide-Based Heme Oxygenase-1 Inhibitors with Potent In Vitro Antiproliferative Activity” (Journal of Medicinal Chemistry, 2021):
# How the values were obtained:
# [1] = Microsomal stability, human liver microsome assay (Eurofins); format: in vitro ADME; conditions: human liver microsomes, protein 0.1 mg/mL
# From the text: (§1) In vitro ADMET testing has been performed at Eurofins Scientific.
# human CYP3A4 = molecular target: T1, human CYP3A4 (Homo sapiens, UniProt P08684); assay: CYP3A4 inhibition (Eurofins); format: in vitro ADME
# T1 construct: Eurofins Scientific (contract assay) 391
# From the text: as §1
# hERG potassium channel = molecular target: T2, hERG potassium channel (Homo sapiens, UniProt Q12809); assay: hERG human potassium ion channel binding (Eurofins)
# T2 construct: Eurofins Scientific (contract assay) 4094
# From the text: as §1
# HO-1 [2] = assay: HO-1 immunolocalization (immunofluorescence) in U87MG; format: cell-based, human; conditions: 10 μM, 48 h
# Procedure: To determine the cellular distribution of heme oxygenase-1 in tumor cells, immunofluorescence analysis was performed as previously described.[62] Tumor cell lines were cultured on glass coverslips fixed in 4% paraformaldehyde in PBS (15′ at room temperature), permeabilized with 0.2% of Triton X100, blocked with 0.1% of BSA in PBS, and then probed with rabbit HO-1 antibody. […] DNA was counterstained stained with DAPI (#940110, Vector Laboratories). After a series of PBS and double-distilled water washes, the fixed cells were cover-slipped with the Vectashield mounting medium (Vector Laboratories, Inc., Burlingame, CA). Localization of the antibody was performed by Zeiss fluorescent microscopy.
# VEGF = VEGF intracellular expression by Western blot, U87MG; format: cell-based, human; conditions: 10 μM, 48 h
# Procedure: (§2) Proteins were extracted from total cell lysate, as previously described.[61] Briefly, cell lines were added to a buffer containing 20 mM Tris (pH 7.4), 2 mM EDTA, 0.5 mM EGTA, 50 mM mercaptoethanol, and […] sucrose supplemented with phosphatase and protease inhibitor cocktails (Roche Diagnostics, Monza, Italy). Subsequently, protein samples were sonicated twice for 20′ by using an ultrasonic probe, followed by centrifugation at 10 000g for 10 min at 4 °C. Sample proteins (30 μg) were diluted in 4X NuPage LDS sample buffer (Invitrogen, NP0007), heated at 80 °C for 5 min, and then separated on a Biorad Criterion XT 4–15% Bis–Tris gel (BIO-RAD) by electrophoresis and then transferred to a PVDF membrane (BIO-RAD). Blots were blocked using the Odyssey Blocking Buffer (LI-COR Biosciences) and probed with appropriate antibodies: HO-1 antibody (GeneTex GTX101147), goat polyclonal anti-VEGF (cat. no. sc-1836, Santa Cruz Biotechnology), and rabbit polyclonal anti-β-tubulin (cat n.sc-9104, Santa Cruz Biotechnology) and β-actin antibody (GeneTex GTX109639).
# (§3) The secondary antibodies goat antirabbit (Odyssey, #926-32211; Odyssey #926-68021) and donkey antigoat IRDye 800CW (cat #926-32214; Li-Cor Biosciences) were used at 1:7000. Blots were scanned, and densitometric analysis was performed with the Odyssey Infrared Imaging System. Values were normalized to β-actin and to β-tubulin.
# VEGF-A = VEGF-A release in conditioned media, ELISA, U87MG; format: cell-based, human; conditions: 10 μM, 48 h
# Procedure: VEGF-A release in conditioned media was measured using the ELISA sandwich enzymatic method with specific anti-VEGF-A (cat. No. ELH-VEGF) antibodies coated on a 96-well plate, according to the manufacturer’s guidelines. Briefly, confluent U87MG cells grown in media supplemented with 1% FBS were treated for 48 h with 10 μM of 7l. Standards and supernatants from samples were pipetted into the wells containing the immobilized VEGF antibody. The wells were then washed before adding a biotinylated antihuman VEGF antibody. Following incubation, the unbound biotinylated antibody was washed off, and HRP-conjugated streptavidin was pipetted in each well. After an additional wash step, a TMB substrate solution was added to each well, resulting in blue coloration proportional to the amount of bound VEGF. Finally, the stop solution was added, and the colorimetric intensity of the blue substrate now turned yellow was measured at 450 nm.
# HO-1 [3] = assay: HO-1 protein expression by Western blot, A172; format: cell-based, human; conditions: A172, 10 μM, 48 h
# Procedure: as §2, §3
# A549 cells = assay: MTT cell viability assay, A549; format: cell-based, human; conditions: 48 h, 10 μM
# Procedure: Experiments were performed on human GBM cell lines U87MG (ATCCC number #HTB-14) and A172 (ATCCC #CRL-1620) on DU145 (ATCC HTB-81) and human lung adenocarcinoma A549 (ATCC CCL-185-LUC2). All cell lines were obtained from the American Type Culture Collection (ATCC, Rockville, MD). Cells were grown in Dulbecco’s modified Eagle’s medium (DMEM) supplemented with 10% of heat-inactivated fetal bovine serum (FBS), 100 U/mL of penicillin, and 100 μg/mL of streptomycin (Sigma-Aldrich, Steinheim, Germany). Cells were incubated at 37 °C in a humidified atmosphere with 5% CO2.
# The effect of selected compounds 7i and 7l–p on cell viability was assessed by performing an MTT assay. Cells were seeded into 96-well plates at a density of 7 × 10^3 cells/well in 100 μL of culture medium. After 24 h, cells were treated with selected compounds at three different concentrations (1 μM, 10 μM, and 50 μM) for 48 h. Following treatments, 0.5 mg/mL of 3-[4,5-dimethylthiazol-2-yl]-2,5-diphenyltetrazolium bromide (MTT) (Sigma-Aldrich) was added to each well and incubated for 4 h at 37 °C. Finally, dimethyl-sulfoxide (DMSO) was used to dissolve formazan salts, and absorbance was measured at 570 nm in a microplate reader (Biotek Synergy-HT). Eight replicate wells were used for each group.
# HO-1 [4] = assay: HO-1 protein expression by Western blot, A549; format: cell-based, human; conditions: A549, 10 μM, 48 h
# Procedure: as §2, §3
# T2 sequence (Q12809 whole entry): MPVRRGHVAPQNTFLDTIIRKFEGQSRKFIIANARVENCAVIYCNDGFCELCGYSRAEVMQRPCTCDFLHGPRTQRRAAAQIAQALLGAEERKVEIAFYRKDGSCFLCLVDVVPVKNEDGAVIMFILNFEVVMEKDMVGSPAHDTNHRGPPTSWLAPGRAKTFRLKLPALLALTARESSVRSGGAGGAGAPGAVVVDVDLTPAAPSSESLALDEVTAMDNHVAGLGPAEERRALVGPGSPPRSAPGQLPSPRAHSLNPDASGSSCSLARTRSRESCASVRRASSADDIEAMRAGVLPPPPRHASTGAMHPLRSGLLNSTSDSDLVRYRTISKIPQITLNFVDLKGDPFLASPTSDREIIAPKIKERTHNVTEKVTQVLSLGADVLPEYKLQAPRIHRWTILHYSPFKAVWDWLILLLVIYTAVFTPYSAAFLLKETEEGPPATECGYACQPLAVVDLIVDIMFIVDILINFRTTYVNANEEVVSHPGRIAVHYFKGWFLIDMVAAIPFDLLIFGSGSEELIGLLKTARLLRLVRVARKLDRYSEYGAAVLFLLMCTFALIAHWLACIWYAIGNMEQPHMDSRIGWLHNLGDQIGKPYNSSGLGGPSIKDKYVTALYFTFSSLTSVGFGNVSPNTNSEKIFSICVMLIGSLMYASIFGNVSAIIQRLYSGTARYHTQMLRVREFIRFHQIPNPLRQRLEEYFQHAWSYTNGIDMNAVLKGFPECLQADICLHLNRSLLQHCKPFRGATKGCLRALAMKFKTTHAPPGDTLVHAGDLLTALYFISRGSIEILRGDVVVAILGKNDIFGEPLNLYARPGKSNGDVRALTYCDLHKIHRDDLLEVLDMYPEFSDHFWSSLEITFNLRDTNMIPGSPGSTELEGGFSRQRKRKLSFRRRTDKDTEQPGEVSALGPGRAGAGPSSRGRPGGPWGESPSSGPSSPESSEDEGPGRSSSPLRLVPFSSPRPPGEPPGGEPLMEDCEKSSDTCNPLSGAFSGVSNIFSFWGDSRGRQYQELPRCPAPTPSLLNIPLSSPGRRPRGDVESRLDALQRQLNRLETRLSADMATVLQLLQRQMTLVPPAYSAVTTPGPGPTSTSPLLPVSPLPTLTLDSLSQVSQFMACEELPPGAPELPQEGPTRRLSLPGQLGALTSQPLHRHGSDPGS
# T1 sequence (P08684 whole entry): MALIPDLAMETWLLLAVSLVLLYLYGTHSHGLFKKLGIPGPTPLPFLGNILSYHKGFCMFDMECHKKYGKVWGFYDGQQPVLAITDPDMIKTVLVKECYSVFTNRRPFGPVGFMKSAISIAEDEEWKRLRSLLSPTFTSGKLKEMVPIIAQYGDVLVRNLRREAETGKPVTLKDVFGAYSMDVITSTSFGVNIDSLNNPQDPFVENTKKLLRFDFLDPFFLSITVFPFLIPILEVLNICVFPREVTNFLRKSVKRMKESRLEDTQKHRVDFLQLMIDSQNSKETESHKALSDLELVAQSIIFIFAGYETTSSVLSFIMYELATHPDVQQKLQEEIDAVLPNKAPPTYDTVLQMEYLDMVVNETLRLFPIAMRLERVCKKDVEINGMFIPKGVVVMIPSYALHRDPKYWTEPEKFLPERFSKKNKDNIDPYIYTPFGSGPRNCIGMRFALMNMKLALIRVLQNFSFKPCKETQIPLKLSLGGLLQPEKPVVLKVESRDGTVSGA
smiles,measurement,setting,value
"CN(C(=O)Cn1ccnc1)C(c1ccccc1)c1ccc(Cl)cc1 (stereo not shown) [7l, N-((4-Chlorophenyl)(phenyl)methyl)-2-(1H-imidazol-1-yl)-N-methylacetamide]",microsomal CLint,[1],58.3 µL/min/mg
same,half-life,[1]; read-out: microsomal stability t1/2,1.98 h
same,IC50,human CYP3A4,180 nM
same,inhibition at 1 µM,hERG potassium channel,5.7%
same,HO-1 immunoreactivity (in words),HO-1 [2],reduced the immunoreactivity of HO-1
same,VEGF intracellular expression (in words),VEGF,significant reduction
same,VEGF release in the culture medium (in words),VEGF-A,significant reduction
"CN(C(=O)Cn1ccnc1)C(c1ccccc1)c1ccc(I)cc1 (stereo not shown) [7n, 2-(1H-Imidazol-1-yl)-N-((4-iodophenyl)(phenyl)methyl)-N-methylacetamide]",HO-1 protein expression (in words),HO-1 [3],enhanced its levels
"CN(C(=O)Cn1ccnc1)C(c1ccccc1)c1ccc(OCc2ccccc2)cc1 (stereo not shown) [7o, N-((4-(Benzyloxy)phenyl)(phenyl)methyl)-2-(1H-imidazol-1-yl)-N-methylacetamide]",cell viability reduction (in words),A549 cells,weak effect
same,HO-1 protein expression (in words),HO-1 [4],upregulated its expression
